Data: patent US9006257B2, “Bicyclic compounds as mPGES-1 inhibitors” (Glenmark Pharmaceuticals S.A., priority 2012, dated 2015)

Target: T1, Recombinant human mPGES-1 (Homo sapiens, UniProt O14684)
T1 construct: made in house; host or cells: CHO cells
T1 sequence (O14684 1-152): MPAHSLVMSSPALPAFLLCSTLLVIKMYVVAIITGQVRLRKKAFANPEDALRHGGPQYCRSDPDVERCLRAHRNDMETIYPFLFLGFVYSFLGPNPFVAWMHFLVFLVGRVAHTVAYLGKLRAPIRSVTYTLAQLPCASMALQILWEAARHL
Experiment: In-vitro mPGES-1 inhibitor screening (inhibition of PGE2 formation from PGH2, HTRF detection)
Assay type: biochemical
Conditions: for inhibition at 1 µM: 1 μM test compound, read-out: Percentage inhibition at 1 μM; for inhibition at 1 µM / inhibition at 10 µM: crude microsomal fraction, 15 μM PGH2; for inhibition at 10 µM: 10 μM test compound, read-out: Percentage inhibition at 10 μM; for IC50: class symbol, concentration response curve
Excerpt: In-Vitro Protocol for Screening of mPGES-1 Inhibitors:
mPGES-1 (microsomal prostaglandin E synthase-1) is a microsomal enzyme that converts endoperoxide substrate PGH2 (prostaglandin H2) to product PGE2 (prostaglandin E2) by isomerization in the presence of reduced glutathione (GSH). mPGES-1 inhibitors were screened by assessing their ability to inhibit formation of PGE2 from PGH2 in presence of mPGES-1 using an anti-PGE2 antibody based detection method. Recombinant human mPGES-1 was generated in-house by expression in CHO cells (Ouellet M et al. (2002), Protein Expression and Purification 26: 489-495). The assay was set up using crude microsomal fractions at protein concentration of 40-60 μg/mL. Test compounds were prepared in 100% dimethyl sulfoxide (DMSO) to obtain 20 mM stock solution and then diluted using assay buffer comprising 0.1 M Potassium phosphate buffer with 2 mM EDTA. The final concentration of DMSO in reaction was 0.5% (v/v). Negative controls were comprised of all assay reagents except the enzyme. Positive controls were comprised of the enzyme reaction in the absence of any inhibitor. Test compounds were incubated for 10 minutes in assay buffer containing 2.5 mM GSH and mPGES-1 enzyme followed by addition of PGH2 at a concentration of 15 μM for 1 minute. The reaction was stopped by addition of Stannous chloride (11 mg/ml) and PGE2 levels were measured (Masse F et al. (2005), Journal of Biomolecular Screening 10(6) 599-605., Goedken R E et al. (2008), Journal of Biomolecular Screening 13(7): 619-625) by HTRF kit (CisBio)).
Inhibition of mPGES-1 enzyme activity was measured using the percent of reaction occurring in the positive control. Concentration response curves were plotted using percent inhibition of maximum enzyme reaction. The IC50 value was calculated from the concentration response curve by nonlinear regression analysis using GraphPad PRISM software.

## CC(C)(C)C(=O)NCc1ccc(Cl)c(C(=O)Nc2cccc3c(Nc4cccc(C(F)(F)F)c4)nccc23)c1F [Example-1, 6-Chloro-2-fluoro-3-(pivalamidomethyl)-N-(1-((3-(trifluoromethyl)phenyl)amino)isoquinolin-5-yl)benzamide]
  inhibition at 1 µM: 95.2%
  inhibition at 10 µM: 96.7%
  IC50: < 50 nM

## CC(C)(C)C(=O)NCc1ccc(Cl)c(C(=O)Nc2cccc3c(Nc4cccc(C(F)(F)F)c4)nccc23)n1 [Example-2, 3-Chloro-6-(pivalamidomethyl)-N-(1-((3-(trifluoromethyl)phenyl)amino)isoquinolin-5-yl)picolinamide]
  inhibition at 1 µM: 95.8%
  inhibition at 10 µM: 97.2%
  IC50: < 50 nM

## Cc1ccc(CNC(=O)C(C)(C)C)c(C)c1C(=O)Nc1cccc2c(Nc3cccc(C(F)(F)F)c3)nccc12 [Example-3, 2,6-Dimethyl-3-(pivalamidomethyl)-N-(1-((3-(trifluoromethyl)phenyl)amino)isoquinolin-5-yl)benzamide]
  inhibition at 1 µM: 96%
  inhibition at 10 µM: 98.1%
  IC50: < 50 nM

## CC(C)(C)C(=O)NCc1ccc(Cl)c(C(=O)Nc2cccc3c(Nc4cccc(C(F)(F)F)c4)nccc23)c1 [Example-4, 2-Chloro-5-(pivalamidomethyl)-N-(1-((3-(trifluoromethyl)phenyl)amino)isoquinolin-5-yl)benzamide]
  inhibition at 1 µM: 98.6%
  inhibition at 10 µM: 99.8%
  IC50: < 50 nM

## CC(C)(C)C(=O)NCc1ccc(Cl)c(C(=O)Nc2cccc3c(Oc4cccc(C(F)(F)F)c4)nccc23)c1F [Example-5, 6-Chloro-2-fluoro-3-(pivalamidomethyl)-N-(1-(3-(trifluoromethyl)phenoxy)isoquinolin-5-yl)benzamide]
  inhibition at 1 µM: 99.5%
  inhibition at 10 µM: 98.5%
  IC50: < 50 nM

## CC(C)(C)C(=O)NCc1ccc(Cl)c(C(=O)Nc2cccc3c(Oc4cccc(C(F)(F)F)c4)nccc23)n1 [Example-6, 3-Chloro-6-(pivalamidomethyl)-N-(1-(3-(trifluoromethyl)phenoxy)isoquinolin-5-yl)picolinamide]
  inhibition at 1 µM: 93%
  inhibition at 10 µM: 95.9%
  IC50: 50 to 100 nM

## CC(C)(C)C(=O)NCc1ccc(Cl)c(C(=O)Nc2cccc3c(Oc4cccc(C(F)(F)F)c4)nccc23)c1 [Example-7, 2-Chloro-5-(pivalamidomethyl)-N-(1-(3-(trifluoromethyl)phenoxy)isoquinolin-5-yl)benzamide]
  inhibition at 1 µM: 100%
  inhibition at 10 µM: 96.7%
  IC50: < 50 nM

## CC(C)(C)C(=O)NCc1ccc(Cl)c(C(=O)Nc2cccc3c(Nc4cccc(C(F)(F)F)c4)ncnc23)n1 [Example-8, 3-Chloro-6-(pivalamidomethyl)-N-(4-((3-(trifluoromethyl)phenyl)amino)quinazolin-8-yl)picolinamide]
  inhibition at 1 µM: 99%
  inhibition at 10 µM: 98%
  IC50: < 50 nM

## CC(C)(C)C(=O)NCc1ccc(Cl)c(C(=O)Nc2cccc3c(Oc4cccc(C(F)(F)F)c4)ncnc23)n1 [Example-9, 3-Chloro-6-(pivalamidomethyl)-N-(4-(3-(trifluoromethyl)phenoxy)quinazolin-8-yl)picolinamide]
  inhibition at 1 µM: 99.1%
  inhibition at 10 µM: 100%
  IC50: < 50 nM

## CC(C)(C)C(=O)NCc1ccc(Cl)c(C(=O)Nc2cccc3c(Oc4cccc(C(F)(F)F)c4)ncnc23)c1 [Example-10, 2-Chloro-5-(pivalamidomethyl)-N-(4-(3-(trifluoromethyl)phenoxy)quinazolin-8-yl)benzamide]
  inhibition at 1 µM: 99.7%
  inhibition at 10 µM: 98.9%
  IC50: < 50 nM

## CC(C)(C)C(=O)NCc1ccc(Cl)c(C(=O)Nc2cccc3c(Oc4cccc(C(F)(F)F)c4)ncnc23)c1F [Example-11, 6-Chloro-2-fluoro-3-(pivalamidomethyl)-N-(4-(3-(trifluoromethyl)phenoxy)quinazolin-8-yl)benzamide]
  inhibition at 1 µM: 97.4%
  inhibition at 10 µM: 90.7%
  IC50: < 50 nM

## CC(C)(C)C(=O)NCc1ccc(Cl)c(C(=O)Nc2cccc3c(Nc4cccc(C(F)(F)F)c4)ncnc23)c1F [Example-12, 6-Chloro-2-fluoro-3-(pivalamidomethyl)-N-(4-((3-(trifluoromethyl)phenyl)amino)quinazolin-8-yl)benzamide]
  inhibition at 1 µM: 99.4%
  inhibition at 10 µM: 99.7%
  IC50: < 50 nM

## CC(C)(C)C(=O)NCc1ccc(Cl)c(C(=O)Nc2cccc3c(Nc4cccc(C(F)(F)F)c4)ncnc23)c1 [Example-13, 2-Chloro-5-(pivalamidomethyl)-N-(4-((3-(trifluoromethyl)phenyl)amino)quinazolin-8-yl)benzamide]
  inhibition at 1 µM: 90.2%
  inhibition at 10 µM: 92.2%
  IC50: < 50 nM

## CC(C)(C)C(=O)NCc1ccc(Cl)c(C(=O)Nc2cccc3c(NC4CCC(F)(F)CC4)ncnc23)c1 [Example-14, 2-Chloro-N-(4-((4,4-difluorocyclohexyl)amino)quinazolin-8-yl)-5-(pivalamidomethyl)benzamide]
  inhibition at 1 µM: 100%
  inhibition at 10 µM: 100%
  IC50: < 50 nM

## CC1(C)CCC(Oc2ncnc3c(NC(=O)c4cc(CNC(=O)C(C)(C)C)ccc4Cl)cccc23)CC1 [Example-15, 2-Chloro-N-(4-((4,4-dimethylcyclohexyl)oxy)quinazolin-8-yl)-5-(pivalamidomethyl)benzamide]
  inhibition at 1 µM: 98.1%
  inhibition at 10 µM: 97.5%
  IC50: < 50 nM

## CC(C)(C)C(=O)NCc1ccc(Cl)c(C(=O)Nc2cccc3c(Oc4cccc(C(F)(F)F)c4)ccnc23)c1 [Example-16, 2-Chloro-5-(pivalamidomethyl)-N-(4-(3-(trifluoromethyl)phenoxy)quinolin-8-yl)benzamide]
  inhibition at 1 µM: 99%
  inhibition at 10 µM: 99.6%
  IC50: < 50 nM

## CC(C)(C)C(=O)NCc1ccc(Cl)c(C(=O)Nc2cccc3c(Oc4cccc(C(F)(F)F)c4)ccnc23)n1 [Example-17, 3-Chloro-6-(pivalamidomethyl)-N-(4-(3-(trifluoromethyl)phenoxy)quinolin-8-yl)picolinamide]
  inhibition at 1 µM: 94.3%
  inhibition at 10 µM: 93.9%
  IC50: < 50 nM

## CC(C)(C)C(=O)NCc1ccc(Cl)c(C(=O)Nc2cccc3c(Oc4cccc(C(F)(F)F)c4)ccnc23)c1F [Example-18, 6-Chloro-2-fluoro-3-(pivalamidomethyl)-N-(4-(3-(trifluoromethyl)phenoxy)quinolin-8-yl)benzamide]
  inhibition at 1 µM: 100%
  inhibition at 10 µM: 99.9%
  IC50: < 50 nM

## CC(C)(C)C(=O)NCc1ccc(Cl)c(C(=O)Nc2ccnc3c(Nc4cccc(C(F)(F)F)c4)cccc23)c1 [Example-19, 2-Chloro-5-(pivalamidomethyl)-N-(8-((3-(trifluoromethyl)phenyl)amino)quinolin-4-yl)benzamide]
  inhibition at 1 µM: 97.7%
  inhibition at 10 µM: 98.2%
  IC50: < 50 nM

## CC(C)(C)C(=O)NCc1ccc(Cl)c(C(=O)Nc2cccc3c(NC4CCC(F)(F)CC4)ncnc23)c1F [Example-20, 6-Chloro-N-(4-((4,4-difluorocyclohexyl)amino)quinazolin-8-yl)-2-fluoro-3-(pivalamidomethyl)benzamide]
  inhibition at 1 µM: 98.8%
  inhibition at 10 µM: 99.4%
  IC50: < 50 nM

## CC(C)(C)C(=O)NCc1ccc(Cl)c(C(=O)Nc2cccc3c(Nc4cc(C(F)(F)F)ccc4F)ncnc23)c1F [Example-21, 6-Chloro-2-fluoro-N-(4-((2-fluoro-5-(trifluoromethyl)phenyl)amino)quinazolin-8-yl)-3-(pivalamidomethyl)benzamide]
  inhibition at 1 µM: 97.3%
  inhibition at 10 µM: 97.2%
  IC50: < 50 nM

## CC1(C)CCC(Nc2ncnc3c(NC(=O)c4c(Cl)ccc(CNC(=O)C(C)(C)C)c4F)cccc23)CC1 [Example-22, 6-Chloro-N-(4-((4,4-dimethylcyclohexyl)amino)quinazolin-8-yl)-2-fluoro-3-(pivalamidomethyl)benzamide]
  inhibition at 1 µM: 100%
  inhibition at 10 µM: 99.6%
  IC50: < 50 nM

## O=C(Nc1cccc2c(Nc3cccc(C(F)(F)F)c3)ncnc12)c1c(Cl)ccc(CNC(=O)[C@@H]2CCCO2)c1F [Example-23, (S)—N-(4-Chloro-2-fluoro-3-((4-((3-(trifluoromethyl)phenyl)amino)quinazolin-8-yl)carbamoyl)benzyl)tetrahydrofuran-2-carboxamide]
  inhibition at 1 µM: 95%
  inhibition at 10 µM: 94.9%
  IC50: < 50 nM
